Assay [1] concerns the target T1, DDR1 (Homo sapiens, UniProt Q08345). The assay is described as follows: DDR1 cell based assay (PathHunter U2OS DDR1 assay). Particulars: U2OS-DDR1 cells, bovine Type II Collagen 20 μg/ml. Also on record: host or cells: U2OS-DDR1 (PathHunter). In outline:
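Receptor activation measured by enzyme-fragment complementation luminescence in engineered U2OS cells. Compound added 30 min before overnight challenge with 20 μg/ml bovine collagen II; data scaled between vehicle and collagen-stimulated controls, IC50 derived by four-parameter variable-slope fitting.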

Another assay has as its target T2, DDR2 (Homo sapiens, UniProt Q16832).
T2 sequence (Q16832 22-855): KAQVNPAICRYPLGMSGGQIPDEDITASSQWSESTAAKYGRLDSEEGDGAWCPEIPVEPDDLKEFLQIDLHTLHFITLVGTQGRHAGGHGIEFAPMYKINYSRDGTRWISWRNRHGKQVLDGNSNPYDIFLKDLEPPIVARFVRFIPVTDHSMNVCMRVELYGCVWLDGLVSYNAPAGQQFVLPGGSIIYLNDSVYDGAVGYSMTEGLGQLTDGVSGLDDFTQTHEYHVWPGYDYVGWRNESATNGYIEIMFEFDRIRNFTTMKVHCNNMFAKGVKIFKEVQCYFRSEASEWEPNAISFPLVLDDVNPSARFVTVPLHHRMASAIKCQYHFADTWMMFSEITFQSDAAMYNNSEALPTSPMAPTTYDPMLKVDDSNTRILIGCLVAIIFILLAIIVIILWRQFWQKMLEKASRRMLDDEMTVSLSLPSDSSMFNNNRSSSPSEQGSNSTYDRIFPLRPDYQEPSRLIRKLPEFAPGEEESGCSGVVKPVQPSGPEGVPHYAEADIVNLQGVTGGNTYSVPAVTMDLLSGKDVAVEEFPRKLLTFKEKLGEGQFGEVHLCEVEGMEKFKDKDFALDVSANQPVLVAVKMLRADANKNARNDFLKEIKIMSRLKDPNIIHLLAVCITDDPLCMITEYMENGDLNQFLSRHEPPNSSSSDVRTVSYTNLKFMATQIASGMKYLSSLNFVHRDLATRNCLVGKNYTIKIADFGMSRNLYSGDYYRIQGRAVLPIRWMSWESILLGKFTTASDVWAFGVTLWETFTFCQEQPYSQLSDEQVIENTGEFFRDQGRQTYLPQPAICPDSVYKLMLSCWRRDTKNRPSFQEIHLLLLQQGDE
The assay is described as follows: DDR2 binding assay (LanthaScreen Europium Kinase Binding assay). The arrangement: purchased Life Technologies. Particulars: binding assay, 5 nM DDR2, 10 nM Kinase Tracer 178; Ki from IC50 by Cheng-Prusoff; read-out: Ki DDR2. In outline:
(§1)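 TR-FRET tracer-displacement format: 665/615 nm emission ratio (340 nm excitation) gave IC50 by 4-parameter fit, then Ki via Cheng-Prusoff. Each kinase at 5 nM with 2 nM Eu-anti-GST antibody and Tracer 178 (DDR1 20 nM, DDR2 10 nM), 1 h, room temperature, HEPES pH 7.5 buffer.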
In general terms: Time-resolved FRET reads energy transfer from a long-lived donor to a nearby acceptor.

Assay [2] has as its target T1, DDR1. Put plainly: DDR1 binding assay (LanthaScreen Europium Kinase Binding assay). The arrangement: purchased Carna Biosciences. Particulars: binding assay, 5 nM DDR1, 20 nM Kinase Tracer 178; Ki from IC50 by Cheng-Prusoff; read-out: Ki DDR1. The method in brief:
as §1

T1 sequence (Q08345 19-913): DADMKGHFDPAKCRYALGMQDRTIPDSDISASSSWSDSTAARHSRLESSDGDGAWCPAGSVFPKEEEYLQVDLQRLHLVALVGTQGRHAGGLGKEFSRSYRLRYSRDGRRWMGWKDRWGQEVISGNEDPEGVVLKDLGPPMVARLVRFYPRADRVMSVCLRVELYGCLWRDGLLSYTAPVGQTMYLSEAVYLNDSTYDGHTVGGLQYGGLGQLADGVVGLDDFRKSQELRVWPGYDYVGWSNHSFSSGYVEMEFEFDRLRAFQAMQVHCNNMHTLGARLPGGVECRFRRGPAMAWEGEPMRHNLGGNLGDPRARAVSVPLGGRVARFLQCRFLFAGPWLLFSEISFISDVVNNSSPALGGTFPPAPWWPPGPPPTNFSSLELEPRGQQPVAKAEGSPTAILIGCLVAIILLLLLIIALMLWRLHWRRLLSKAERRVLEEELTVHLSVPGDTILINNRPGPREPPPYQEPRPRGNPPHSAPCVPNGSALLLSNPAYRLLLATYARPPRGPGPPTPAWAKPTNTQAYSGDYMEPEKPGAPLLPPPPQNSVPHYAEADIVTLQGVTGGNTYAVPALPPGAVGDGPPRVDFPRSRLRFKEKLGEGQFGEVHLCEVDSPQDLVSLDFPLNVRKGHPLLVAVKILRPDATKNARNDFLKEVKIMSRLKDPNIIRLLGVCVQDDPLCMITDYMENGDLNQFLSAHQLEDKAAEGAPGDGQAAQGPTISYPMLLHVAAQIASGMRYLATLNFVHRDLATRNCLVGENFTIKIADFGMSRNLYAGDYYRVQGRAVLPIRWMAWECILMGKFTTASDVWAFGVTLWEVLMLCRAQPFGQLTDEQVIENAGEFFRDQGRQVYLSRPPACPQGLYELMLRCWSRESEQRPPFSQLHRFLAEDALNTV

As a reminder, the IC50 is the point on the concentration scale where inhibition reaches its midpoint. Read a high IC50 as a need for much substance. Usually Ki stands for a measure of affinity in units of concentration, obtained from inhibition or displacement. For the molecule `CC(F)(F)c1cncc(NC(=O)c2csc3c2CCN(C(=O)c2cnc4ccccn24)C3)c1` [Example 115, N-(5-(1,1-difluoroethyl)pyridin-3-yl)-6-(imidazo[1,2-a]pyridine-3-carbonyl)-4,5,6,7-tetrahydrothieno[2,3-c]pyridine-3-carboxamide], the IC50 on DDR1 [1] lay within 50 to 80 nM. Further, the Ki on DDR2 and on DDR1 [2] was less than 25 nM each time.
In the case of `CN1CCN(c2ccc3ncc(C(=O)N4CCc5c(C(=O)Nc6cc(C(C)(C)C)no6)csc5C4)n3c2)CC1` [Example 168, N-(3-(tert-butyl)isoxazol-5-yl)-6-(6-(4-methylpiperazin-1-yl)imidazo[1,2-a]pyridine-3-carbonyl)-4,5,6,7-tetrahydrothieno[2,3-c]pyridine-3-carboxamide], the concentration for half-maximal inhibition (IC50) against DDR1 [1] was in the range of 25 to 50 nM. The Ki at DDR2 and on DDR1 [2] was less than 25 nM in each case.
Consider `CC(C)(C)c1cc(NC(=O)c2csc3c2CCN(C(=O)c2cnn4ccncc24)C3)on1` [Example 113, N-(3-(tert-butyl)isoxazol-5-yl)-6-(pyrazolo[1,5-a]pyrazine-3-carbonyl)-4,5,6,7-tetrahydrothieno[2,3-c]pyridine-3-carboxamide], for which the IC50 against DDR1 [1] lay within 25 to 50 nM. For the same molecule, the Ki on DDR2 and on DDR1 [2] was less than 25 nM throughout.
The molecule `Cn1nc(C(C)(C)C)cc1NC(=O)c1csc2c1CCN(C(=O)c1cnc3ccc(Cl)cn13)C2` [Example 83, N-(3-(tert-butyl)-1-methyl-1H-pyrazol-5-yl)-6-(6-chloroimidazo[1,2-a]pyridine-3-carbonyl)-4,5,6,7-tetrahydrothieno[2,3-c]pyridine-3-carboxamide] had an IC50 against DDR1 [1] of 25 to 50 nM. Also, the Ki at DDR2 and at DDR1 [2] was less than 25 nM in each case.
On DDR1 [1], `O=C(Nc1cc(F)cc(C(F)(F)F)c1)c1csc2c1CCN(C(=O)c1cnn3cccnc13)C2` [Example 97, N-(3-fluoro-5-(trifluoromethyl)phenyl)-6-(pyrazolo[1,5-a]pyrimidine-3-carbonyl)-4,5,6,7-tetrahydrothieno[2,3-c]pyridine-3-carboxamide] returned an IC50 of less than 25 nM. In addition, the Ki at DDR2 and on DDR1 [2] was less than 25 nM each time.
On to `COc1ccn2ncc(C(=O)N3CCc4c(C(=O)Nc5cncc(C(F)(F)F)c5)csc4C3)c2c1` [Example 140, 6-(5-methoxypyrazolo[1,5-a]pyridine-3-carbonyl)-N-(5-(trifluoromethyl)pyridin-3-yl)-4,5,6,7-tetrahydrothieno[2,3-c]pyridine-3-carboxamide], for which the IC50 at DDR1 [1] is less than 25 nM. Moreover, the Ki at DDR2 and at DDR1 [2] was less than 25 nM throughout.
For `O=C(Nc1cncc(OC(F)(F)F)c1)c1csc2c1CCN(C(=O)c1cnc3ccccn13)C2` [Example 186, 6-(imidazo[1,2-a]pyridine-3-carbonyl)-N-(5-(trifluoromethoxy)pyridin-3-yl)-4,5,6,7-tetrahydrothieno[2,3-c]pyridine-3-carboxamide], the IC50 at DDR1 [1] was less than 25 nM. For the same molecule, the Ki on DDR2 and on DDR1 [2] was less than 25 nM in each case.
Regarding `O=C(Nc1cncc(C(F)(F)F)c1)c1csc2c1CCN(C(=O)c1cnn3ccsc13)C2` [Example 141, 6-(pyrazolo[5,1-b]thiazole-7-carbonyl)-N-(5-(trifluoromethyl)pyridin-3-yl)-4,5,6,7-tetrahydrothieno[2,3-c]pyridine-3-carboxamide], the IC50 on DDR1 [1] was less than 25 nM. Further, the Ki on DDR2 and on DDR1 [2] was less than 25 nM throughout.
The molecule `CN1CCN(c2ccc3ncc(C(=O)N4CCc5c(C(=O)Nc6cc(C(C)(C)C)n(C)n6)csc5C4)n3c2)CC1` [Example 145, N-(5-(tert-butyl)-1-methyl-1H-pyrazol-3-yl)-6-(6-(4-methylpiperazin-1-yl)imidazo[1,2-a]pyridine-3-carbonyl)-4,5,6,7-tetrahydrothieno[2,3-c]pyridine-3-carboxamide] came in with a 50% inhibitory concentration (IC50) against DDR1 [1] of 25 to 50 nM. The results for the Ki on DDR2 and at DDR1 [2] were 25 to 50 nM and less than 25 nM, respectively.
For the molecule `CC(C)Cc1cc(NC(=O)c2csc3c2CCN(C(=O)c2cnn4ccncc24)C3)on1` [Example 183, N-(3-isobutylisoxazol-5-yl)-6-(pyrazolo[1,5-a]pyrazine-3-carbonyl)-4,5,6,7-tetrahydrothieno[2,3-c]pyridine-3-carboxamide], on DDR1 [1], the IC50 fell in the range of 50 to 80 nM. The Ki at DDR2 and on DDR1 [2] was less than 25 nM each time.
Regarding `O=C(Nc1cc(CN2CCN(C3COC3)CC2)cc(C(F)(F)F)c1)c1csc2c1CCN(C(=O)c1cnc3ccccn13)C2` [Example 54, 6-(imidazo[1,2-a]pyridine-3-carbonyl)-N-(3-((4-(oxetan-3-yl)piperazin-1-yl)methyl)-5-(trifluoromethyl)phenyl)-4,5,6,7-tetrahydrothieno[2,3-c]pyridine-3-carboxamide], the IC50 on DDR1 [1] lay in the range of 50 to 80 nM. Further, the Ki at DDR2 and on DDR1 [2] was less than 25 nM each time.
Consider `CN(C)[C@@H]1CCN(Cc2cc(NC(=O)c3csc4c3CCN(Cc3cnc5ccnn5c3)C4)cc(C(F)(F)F)c2)C1` [Example 161, (R)-N-(3-((3-(dimethylamino)pyrrolidin-1-yl)methyl)-5-(trifluoromethyl)phenyl)-6-(pyrazolo[1,5-a]pyrimidin-6-ylmethyl)-4,5,6,7-tetrahydrothieno[2,3-c]pyridine-3-carboxamide], for which the IC50 against DDR1 [1] fell in the range of 25 to 50 nM. Moreover, the Ki on DDR2 and on DDR1 [2] was less than 25 nM throughout.
For `CN1CCC(Oc2ccc(NC(=O)c3csc4c3CCN(C(=O)c3cnc5ccccn35)C4)cc2C(F)(F)F)C1` (stereo not drawn) [Example 31, 6-(imidazo[1,2-a]pyridine-3-carbonyl)-N-(4-((1-methylpyrrolidin-3-yl)oxy)-3-(trifluoromethyl)phenyl)-4,5,6,7-tetrahydrothieno[2,3-c]pyridine-3-carboxamide], at DDR1 [1], the IC50 was 50 to 80 nM. Also, the Ki on DDR2 and on DDR1 [2] was less than 25 nM throughout.
`COCCOc1ccc(NC(=O)c2csc3c2CCN(C(=O)c2cnc4ccccn24)C3)cc1C(F)(F)F` [Example 15, 6-(imidazo[1,2-a]pyridine-3-carbonyl)-N-(4-(2-methoxyethoxy)-3-(trifluoromethyl)phenyl)-4,5,6,7-tetrahydrothieno[2,3-c]pyridine-3-carboxamide] returned an IC50 at DDR1 [1] of 25 to 50 nM. The Ki on DDR2 and at DDR1 [2] was less than 25 nM throughout.
`Cn1ccn2ncc(C(=O)N3CCc4c(C(=O)Nc5cncc(C(F)(F)F)c5)csc4C3)c12` [Example 143, 6-(1-methyl-1H-imidazo[1,2-b]pyrazole-7-carbonyl)-N-(5-(trifluoromethyl)pyridin-3-yl)-4,5,6,7-tetrahydrothieno[2,3-c]pyridine-3-carboxamide]: on DDR1 [1], the IC50 is less than 25 nM. Besides, the inhibition constant (Ki) on DDR2 and on DDR1 [2] was less than 25 nM each time.
Regarding `CN(C)[C@H]1CCN(Cc2cc(NC(=O)c3csc4c3CCN(C(=O)c3cnc5ccccn35)C4)cc(C(F)(F)F)c2)C1` [Example 44, (S)-N-(3-((3-(dimethylamino)pyrrolidin-1-yl)methyl)-5-(trifluoromethyl)phenyl)-6-(imidazo[1,2-a]pyridine-3-carbonyl)-4,5,6,7-tetrahydrothieno[2,3-c]pyridine-3-carboxamide], the IC50 on DDR1 [1] is 25 to 50 nM. Moreover, the Ki on DDR2 and on DDR1 [2] was less than 25 nM throughout.
As for `CCC(C)(C)c1cc(NC(=O)c2csc3c2CCN(C(=O)c2cnc4ccccn24)C3)on1` [Example 119, 6-(imidazo[1,2-a]pyridine-3-carbonyl)-N-(3-(tert-pentyl)isoxazol-5-yl)-4,5,6,7-tetrahydrothieno[2,3-c]pyridine-3-carboxamide], the IC50 against DDR1 [1] lay in the range of 25 to 50 nM. The inhibition constant (Ki) on DDR2 and on DDR1 [2] was less than 25 nM in each case.
In turn, `O=C(Nc1ccc(Cl)c(C(F)(F)F)c1)c1csc2c1CCN(C(=O)c1cnn3ccncc13)C2` [Example 176, N-(4-chloro-3-(trifluoromethyl)phenyl)-6-(pyrazolo[1,5-a]pyrazine-3-carbonyl)-4,5,6,7-tetrahydrothieno[2,3-c]pyridine-3-carboxamide] had an IC50 on DDR1 [1] of 50 to 80 nM. For the same molecule, the Ki on DDR2 and on DDR1 [2] was less than 25 nM each time.

These data come from patent US20240391936A1, “TETRAHYDROTHIENO PYRIDINE DERIVATIVES AS DDRS INHIBITORS” (CHIESI FARMACEUTICI S.P.A., priority 2021, published 2024).
